Measured values published in patent US8835392B2, “Mimetic peptides and the use thereof in the form of 20S, 26S and immunoproteasome inhibitors” (Technische Universität, priority 2005, dated 2014).
“Also recorded” adds a separate entry of the source. Where a SMILES comes first, the peptide text is derived from it. [ ]: non-standard residue; d: D form. The star is where a group is joined. Leu(ol) = CC(C)C[C@H](N)CO; Cbz = O=C(OCc1ccccc1)*; Boc = CC(C)(C)OC(=O)*; OBn = c1ccc(CO*)cc1; OtBu = CC(C)(C)O*; CH2Cl = ClC*

Tests used:
[1] = molecular target: T1, proteasomal activity in HeLa-cells (Homo sapiens, UniProt P20618+P28074); assay: Intracellular inhibition of proteasomes in cultivated HeLa-cells; assay type: cell-based; settings: for reduction of the specific proteasomal activity in cells: 1 μM; for membrane-permeation / stability during the incubation periods: cultivated cells
T1 construct: endogenous in cells; host or cells: HeLa
Experimental: (§1) A, HeLa-cells were cultivated were 24 hours in the presence of the inhibitor. The protein concentration was determined in accordance with the cellular lysis according to Bradford in order to normalise the proteasomal activities to the different amounts of cells. Subsequently Complete (Roche) was added to all lysates, and the proteasomal activity was determined through the hydrolysis of Suc-LLVY-AMC. B, HeLa-cells was incubated with 1 μM of compound 15 for 2, 4, 6 and 24 hours. Cells were lysed, and proteins were separated through SDS-PAGE on a 10% gel, blotted to a PVDF-membrane. The accumulation of the poly-ubiquitinylated proteins was detected in a Western blot by an anti-ubiquitine-antibody (DAKO). C, HeLa-Cells were treated with increasing concentrations of the inhibitor 15, 25, 26, 27, and 28 for 24 hours (lane 1: without inhibitor; lane 2: 10 nM; lane 3: 100 nM and lane 4: 1 μM of the given inhibitor). Cells were lysed, proteins were separated on 15% gels, and the accumulation of the poly-ubiquitinylated proteins was controlled through Western blot.
HeLa-Cells were cultivated in RPMI, supplemented with 10% FCS and penicillin/streptomycin, at 5% CO2. Inhibitors were administered from 100×-stock solutions (in DMSO) at the final concentrations as indicated, and incubated with the cells for at least 20 hours.
Cultivated cells (HeLa) were harvested lysed and with 0.1% NP40 in TEAD in the presence of the commercially available protease-inhibitor-mixture Complete (Roche). The proteasomal activity was measured in 10 μl of the lysate using Suc-LLVY-AMC as a substrate. The protein content was quantified by means of Bradford (Protein assay; BioRad).
An application on cell cultures or animals requires that the concentrations of the inhibitors are chose as low as required. The specific proteasomal activity was reduced to a value of below 50% in cells that were treated with 1 μM of the compounds 15, 22, 25, 26, or 28, respectively (FIG. 6A).

[2] = molecular target: T2, 20S proteasome β5 chymotrypsin-like activity (GLL-MCA) (Homo sapiens, UniProt P20618+P28074); assay: Protease assay, chymotrypsin-like activity of isolated 20S proteasomes (GLL substrate); assay type: biochemical; settings: isolated 20S proteasome; GLL-MCA 50 μM; 15 min pre-incubation; read-out: IC50 β5 Chym.-like (L)
T2 construct: Proteasomes were isolated from red blood cells; from tissue; host or cells: red blood cells
Experimental: (§2) Proteasomes were isolated from red blood cells. Cells were lysed with DTT (1 mM), and the stroma-free supernatant was loaded on DEAE-sepharose (Toyopearls). Proteasome was eluted with an NaCl-gradient in TEAD (20 mM TrisCl pH 7.4, 1 mM EDTA, 1 mM azide, 1 mM DTT) of 100 to 300 mM NaCl. Proteasome was concentrated using ammonium sulfate-precipitation (between 40 and 70% saturation) and was separated in a 10-40% sucrose-gradient through centrifugation at 40.000 rpm for 16 hours (SW40; L7, Beckman & Coulter). Finally, the proteasomes were purified on a MonoQ-column and eluted with an NaCl-gradient at about 280 mM NaCl. The fractions containing purified proteasome were dialysed against 50 mM NaCl in TEAD and stored on ice. The purity was determined using SDS-PAGE.
(§3) Suc-LLVY-AMC, Z-VGR-AMC and LLE-AMC (BACHEM, Calbiochem) was used, in order to determine the chymotrypsin-like, trypsin-like or caspase-like (post-acidic)-activities of the proteasome. Substrate was incubated with proteasome at 37° C. in assay-buffer (20 mM Tris/Cl, pH 7.2, 1 mM EDTA, 1 mM DTT) for one hour. 100 ng proteasome was pre-incubated with 0.01-10 μM of the inhibitor for […]. The reaction was started by the addition of substrate (50 μM). The AMC as released was detected using fluorescence emission at 460 nm (excitation at 390 nm) using a TECAN-fluorimeter. The activity was calculated in fluorescence-units. The inhibition is depicted by IC50-values.
(§4) The IC50-values form the inhibition of the proteasome were calculated at increasing concentrations of the inhibitor. The samples were pre-incubated for 15 min in ice. The assay was started through the addition of 50 μM of one of the following fluorogenic peptide substrates:
(§5) The release of MCA was determined at 460 nm emission (excitation 390 nm). The IC50-values as calculated for MG132 served as controls.

[3] = tested on: T3, 20S proteasome; assay: Inhibition of the different proteasomal activities, summary statements; assay type: biochemical; settings: isolated proteasomes, specific substrates
T3 construct: Proteasomes were isolated from red blood cells; from tissue; host or cells: red blood cells
Experimental: The specific inhibition of a single catalytic site is of specific interest for the development of drugs. Thus, the inhibition of the different proteasomal activities of the proteasome was analysed (see also example 6). The different cleavage-preferences of the proteasome were determined by the specific substrate for the hydrophobic (chymotrypsin-like), the trypsine-like and the caspase-like activities of isolated proteasomes.
as §3
(§6) The effects thereof were compared with the one of the commonly used proteasomal inhibitor 3 (MG132). The chymotrypsin-like (Suc-LLVY-AMC), the trypsin-like (Bz-VGR-AMC), and the caspase-like (Z-LLE-AMC)-activities of 20S proteasomes were determined following incubation for one hour at 37° C.

[4] = molecular target: T4, 20S proteasome β5 chymotrypsin-like activity (Suc-LLVY-AMC) (Homo sapiens, UniProt P20618+P28074); assay: Protease assay, chymotrypsin-like activity of isolated 20S proteasomes (LLVY substrate); assay type: biochemical; settings: isolated 20S proteasome; LLVY-MCA 50 μM; 15 min pre-incubation; read-out: IC50 β5 Chymotrypsin-like (Y)
T4 construct: Proteasomes were isolated from red blood cells; from tissue; host or cells: red blood cells
Experimental: as §2, §3
The chymotrypsin-like (Suc-LLVY-AMC), the trypsin-like (Bz-VGR-AMC), and the caspase-like (Z-LLE-AMC)-activities of 20S proteasomes were determined following incubation for one hour at 37° C.
as §4, §5

[5] = tested on: poly-ubiquitinylated proteins in HeLa-cells; assay: Accumulation of poly-ubiquitinylated proteins, Western blot; assay type: cell-based; settings: 1 μM for compound 15
Experimental: as §1
A specific inhibition of the proteasome lead to an accumulation of poly-ubiquitinylated proteins. Indeed, the amount of poly-ubiquitinylated proteins increased during the incubation with the inhibitors. First effects were observed after 2 hours, for compound 15 (FIG. 6B) as well as for compounds 20, 22, 25 and 28 (data not shown).
50 μg of whole-cell-lysate were separated by SDS-PAGE, and blottet onto a PVDF-membrane (Millipore). The blots were blocked by means of a 5% milk-suspension. The poly-ubiquitinylated proteins were detected by anti-ubiquitin-antibody (DAKO), and anti-rabbit, POD-labelled, as a secondary antibody (DIANOVA), and visualized through ECL.

[6] = molecular target: T5, 20S proteasome β1 caspase-like activity (LLE-MCA) (Homo sapiens, UniProt P28072+Q99436); assay: Protease assay, caspase-like activity of isolated 20S proteasomes; assay type: biochemical; settings: isolated 20S proteasome; LLE-MCA 50 μM; 15 min pre-incubation; read-out: IC50 β1 Caspase-like (E)
T5 construct: Proteasomes were isolated from red blood cells; from tissue; host or cells: red blood cells
Experimental: as §2, §3, §6, §4, §5

[7] = molecular target: T6, 20S proteasome β2 trypsin-like activity (VGR-MCA) (Homo sapiens, UniProt P49720+Q99436); assay: Protease assay, trypsin-like activity of isolated 20S proteasomes; assay type: biochemical; settings: isolated 20S proteasome; VGR-MCA 50 μM; 15 min pre-incubation; read-out: IC50 β2 Trypsin-like (R)
T6 construct: Proteasomes were isolated from red blood cells; from tissue; host or cells: red blood cells
Experimental: as §2, §3, §6, §4, §5

[8] = tested on: HeLa-cells; assay: Viability of HeLa-cells, crystal violet-staining; assay type: cell-based; settings: 10 μM, 20 hours
Experimental: A, The viability of HeLa-Cells that were incubated with the compounds 7-28 and MG132 (1 μM), was determined using crystal-violet-staining after 20 h.
B, The viability of HeLa-Cells is dependent from the concentration of the inhibitor. HeLa-cells were cultivated for 20 hours in the presence of increasing concentrations (10 to 10000 nM) of the compounds (7, 13, 15, 18, 20-22, 24-28) and MG 132. The survival of the cells was determined using crystal-violet-staining.
The viability of Hela-Cells in the presence of different compounds was tested in […]. The viability of HeLa-cells was tested through crystal violet-staining following the incubation with the inhibitors. The cells were washed once with PBS, fixed with 1% glutardialdehyde for 30 min, and washed again. Finally, the fixed cells were stained with 0.1% crystal violet in PBS for 30 min, and subsequently carefully washed with water, in order to remove unbound dye. The residual dye was eluted with 0.1% Triton X-100 in PBS, and determined at 550 nm.

[9] = Hydrolytic stability of dichlorovinylethers; assay type: physicochemical; settings: for stability at pH 11: converted into α-chloroacetates
Excerpt: The non-selective dichlorovinylester 1 (see FIG. 1), which readily reacts with all possible nucleophiles, such as, for example, cysteine, serine and finally also threonine, served as a further lead-structure for the syntheses of compounds according to the invention. In addition, the aim was pursued to reduce the inherent over-activation of this compound. The “removal” of the acyl group of 1 could reduce the non-specific hydrolysis through ubiquitary nucleophiles, and results in quite stable dichlorovinylethers (28). […] This dual reactivity which is provided in a cascade-like reaction, corresponds to the specific requirements for an N-terminal threonine-protease-inhibitor.

Row | Structure (SMILES) | IC50 [4] | IC50 [6] | which proteasomal activities are inhibited (site selectivity) [3] | also measured
1 | CC(C)C[C@H](NC(=O)OCc1ccccc1)C(=O)N[C@@H](CC(C)C)C(=O)N[C@@H](CC(C)C)C(=O)C(=O)NCc1cccnc1 [Compound 27] |  | 7.97 µM | inhibited the chymotryptic and the caspase-like sites | reduction of the specific proteasomal activity in cells ([1]; HeLa cells): markedly reduction; rate of survival of HeLa-cells [8]: markedly reduced
2 | CC(C)C[C@@H](CO)NC(=O)[C@H](CC(=O)OC(C)(C)C)NC(=O)[C@H](CC(C)C)NC(=O)OCc1ccccc1 [Compound 8] (Cbz-Leu-Asp(OtBu)-[Leu(ol)]) | > 10 µM | > 10 µM | exclusive inhibition of the trypsin-like activity; also recorded: specifically reduced the trypsine-like activity | IC50 [7]: 5.48 µM
3 | CC(C)C[C@H](NC(=O)OCc1ccccc1)C(=O)N[C@@H](CC(C)C)C(=O)N[C@H](COC(Cl)=CCl)c1ccccc1 [Compound 19] |  |  |  | stability in acidic environment [9]: tolerate an acidic environment; stability at pH 11 [9]: hydrolysed readily
4 | CC(C)C[C@@H](CO)NC(=O)[C@H](CC(=O)OCc1ccccc1)NC(=O)[C@H](CC(C)C)NC(=O)OC(C)(C)C [Compound 12] (Boc-Leu-Asp(OBn)-[Leu(ol)]) | > 10 µM |  |  | 
5 | CC(=O)N[C@@H](CC(C)C)C(=O)N[C@@H](CC(=O)OCc1ccccc1)C(=O)N[C@H](CO)CC(C)C [Compound 10] (Ac-Leu-Asp(OBn)-[Leu(ol)]) | > 10 µM |  |  | 
6 | CC(C)C[C@@H](CO)NC(=O)[C@H](CC(=O)OCc1ccccc1)NC(=O)[C@H](CC(C)C)NC(=O)OCc1ccccc1 [Compound 11] (Cbz-Leu-Asp(OBn)-[Leu(ol)]) | > 10 µM |  |  | 
7 | CC(C)C[C@@H](COC(Cl)=CCl)NC(=O)[C@H](CC(C)C)NC(=O)[C@H](CC(C)C)NC(=O)OCc1ccccc1 [Compound 20] | > 10 µM | > 10 µM |  | stability in acidic environment [9]: tolerate an acidic environment; stability at pH 11 [9]: hydrolysed readily; first effects on accumulation of poly-ubiquitinylated proteins observed after [5]: 2 h; IC50 [7]: > 10 µM

Second part, led by results:

Row | IC50 [4] | IC50 [6] | Structure (SMILES) | which proteasomal activities are inhibited (site selectivity) [3] | also measured
8 | 1.3 µM |  | CC(C)C[C@H](NC(=O)OCc1ccccc1)C(=O)N[C@@H](CC(C)C)C(=O)N[C@@H](CC(C)C)C(O)C#Cc1ccccc1 (some centres unmarked) [Compound 21] | exclusive reduction of the chymotryptic activity | reduction of the specific proteasomal activity in cells ([1]; HeLa cells): very weak inhibition; IC50 [2]: > 10 µM
9 | > 10 µM |  | CC(=O)N[C@@H](CC(C)C)C(=O)N[C@@H](CC(=O)OC(C)(C)C)C(=O)N[C@H](CO)CC(C)C [Compound 9] (Ac-Leu-Asp(OtBu)-[Leu(ol)]) |  | 
10 | 0.981 µM | 4.04 µM | CC(C)C[C@H](NC(=O)OCc1ccccc1)C(=O)N[C@@H](CC(C)C)C(=O)N[C@@H](CC(C)C)C(O)C(=O)Nc1ccccc1 (some centres unmarked) [Compound 25] | inhibited the chymotryptic and the caspase-like sites | membrane-permeation [1]: membrane-permeation; stability during the incubation periods [1]: sufficient stability; first effects on accumulation of poly-ubiquitinylated proteins observed after [5]: 2 h
11 | 7.26 µM | > 10 µM | CC(C)C[C@@H](C=O)NC(=O)[C@H](CC(=O)O)NC(=O)[C@H](CC(C)C)NC(=O)OCc1ccccc1 [Compound 16] (Cbz-Leu-Asp-Leu-aldehyde) | exclusive reduction of the chymotryptic activity | IC50 [7]: > 10 µM
12 | 2.2 µM |  | CC(C)CC(NC(=O)C(CC(C)C)NC(=O)C(CC(C)C)NC(=O)OCc1ccccc1)C(=O)CCl (stereo not drawn) [Compound 22] (Cbz-Leu-Leu-Leu-CH2Cl; configuration not given here) | exclusive reduction of the chymotryptic activity | reduction of the proteolytic activity in cells at 10 nM ([1]; HeLa cells, 10 nM): reduction of the proteolytic activity; membrane-permeation [1]: membrane-permeation; stability during the incubation periods [1]: sufficient stability; first effects on accumulation of poly-ubiquitinylated proteins observed after [5]: 2 h
13 | 1.73 µM | 3.12 µM | CC(C)C[C@@H](C=O)NC(=O)[C@H](CC(=O)OCc1ccccc1)NC(=O)[C@H](CC(C)C)NC(=O)OCc1ccccc1 [Compound 18] (Cbz-Leu-Asp(OBn)-Leu-aldehyde) | inhibited the chymotryptic and the caspase-like sites | reduction of the specific proteasomal activity in cells ([1]; HeLa cells): very weak inhibition
